Data reported in US6593480B2 (Abbott Laboratories, priority 1999, dated 2003).

What was measured:
[1] = biological target: T1, Human glucocorticoid receptors (Homo sapiens, UniProt P04150); test: Radioligand filter binding assay, displacement of 3(H)-dexamethasone from human glucocorticoid receptor cytosol; settings: 1.7 μM test compound, inhibition of 3(H)-dex binding to hGR; for inhibition at 1.7 µM: read-out: GR BINDING (% Inhibition @ 1.7 μM)
T1 construct: made in house; host or cells: Sf9 insect cells, recombinant baculovirus (BAC-TO-BAC)
T1 sequence (P04150 1-777): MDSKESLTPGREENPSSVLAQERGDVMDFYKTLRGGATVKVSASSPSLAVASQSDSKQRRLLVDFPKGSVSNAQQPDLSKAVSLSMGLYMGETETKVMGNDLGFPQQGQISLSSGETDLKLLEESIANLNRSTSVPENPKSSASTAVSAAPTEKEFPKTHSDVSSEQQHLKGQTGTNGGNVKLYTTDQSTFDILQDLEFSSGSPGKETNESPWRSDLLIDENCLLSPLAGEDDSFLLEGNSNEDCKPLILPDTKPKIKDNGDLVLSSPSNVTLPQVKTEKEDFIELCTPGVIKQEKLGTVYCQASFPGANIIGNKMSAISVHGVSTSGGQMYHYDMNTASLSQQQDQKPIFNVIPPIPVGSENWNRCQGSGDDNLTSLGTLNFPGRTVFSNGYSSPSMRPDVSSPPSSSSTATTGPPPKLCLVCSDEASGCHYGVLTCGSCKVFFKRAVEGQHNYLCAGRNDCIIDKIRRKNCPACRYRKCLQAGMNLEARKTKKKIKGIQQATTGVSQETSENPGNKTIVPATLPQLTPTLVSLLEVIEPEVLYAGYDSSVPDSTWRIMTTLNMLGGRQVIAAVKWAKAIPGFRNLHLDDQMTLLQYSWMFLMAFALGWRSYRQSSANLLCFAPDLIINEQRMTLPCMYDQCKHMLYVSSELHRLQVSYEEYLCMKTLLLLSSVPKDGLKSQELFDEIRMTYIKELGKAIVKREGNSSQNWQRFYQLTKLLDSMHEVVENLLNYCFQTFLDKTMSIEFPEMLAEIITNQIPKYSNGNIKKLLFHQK

[2] = biological target: T2, progesterone receptor (PR) (Homo sapiens, UniProt P06401); test: Radioligand binding assay with progesterone receptor cytosol (similar protocol)
T2 sequence (P06401 1-933): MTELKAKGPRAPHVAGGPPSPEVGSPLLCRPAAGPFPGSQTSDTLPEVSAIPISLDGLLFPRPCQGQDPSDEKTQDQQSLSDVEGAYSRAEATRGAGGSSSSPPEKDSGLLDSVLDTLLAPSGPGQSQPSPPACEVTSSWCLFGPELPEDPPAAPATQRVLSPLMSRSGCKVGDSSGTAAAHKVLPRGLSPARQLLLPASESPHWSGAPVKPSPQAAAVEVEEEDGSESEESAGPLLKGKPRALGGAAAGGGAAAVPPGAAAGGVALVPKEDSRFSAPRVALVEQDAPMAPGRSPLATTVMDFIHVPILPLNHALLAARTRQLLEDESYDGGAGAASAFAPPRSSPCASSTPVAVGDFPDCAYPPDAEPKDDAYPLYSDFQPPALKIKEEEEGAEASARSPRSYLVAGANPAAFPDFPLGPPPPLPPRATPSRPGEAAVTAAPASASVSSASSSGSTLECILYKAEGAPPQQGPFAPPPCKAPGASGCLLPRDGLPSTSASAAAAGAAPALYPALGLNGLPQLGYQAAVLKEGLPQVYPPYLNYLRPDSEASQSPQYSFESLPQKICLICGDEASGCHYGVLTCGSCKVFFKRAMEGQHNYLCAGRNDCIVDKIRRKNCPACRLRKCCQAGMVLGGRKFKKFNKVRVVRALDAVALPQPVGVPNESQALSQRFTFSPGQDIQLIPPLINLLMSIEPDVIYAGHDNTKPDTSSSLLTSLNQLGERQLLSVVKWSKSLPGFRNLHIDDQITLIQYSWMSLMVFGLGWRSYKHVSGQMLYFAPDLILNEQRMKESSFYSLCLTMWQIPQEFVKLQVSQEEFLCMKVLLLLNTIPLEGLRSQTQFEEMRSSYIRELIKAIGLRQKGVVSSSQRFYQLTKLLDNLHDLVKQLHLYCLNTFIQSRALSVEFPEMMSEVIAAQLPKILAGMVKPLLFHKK
From the text: Methods for Radioligand Binding Studies with Human Glucocorticoid and Progesterone Receptor Cytosol
A similar protocol was employed to measure affinity of the compounds of the present invention for progesterone receptor (PR).

| inhibition at 1.7 µM [1] [%] | IC50 [2] [nM] | GR BINDING (% Inhibition @ 1.7 μM) [1] [%] | Molecule |
| --- | --- | --- | --- |
| 67.2 | > 10000 |  | COc1cccc2c1-c1ccc(NS(C)(=O)=O)c(Br)c1C(c1ccccc1)O2 (stereo not drawn) [Example 2] |
| 88.9 | 800 |  | COc1cccc2c1-c1ccc(NS(C)(=O)=O)cc1[C@H](c1ccccc1)O2 [Example 24, 6S-(1-methoxy-6-phenyl-6H-dibenzo(b,d)pyran-8-yl)methanesulfonamide] |
| 92.7 | 370 |  | CS(=O)(=O)Nc1ccc2c(c1)C(c1ccccc1)Oc1cccc(OC(F)F)c1-2 (stereo not drawn) [Example 25, N-(1-difluoromethoxy-6-phenyl-6H-dibenzo[b,d]pyran-8-yl)methanesulfonamide] |
| 87.5 | 5490 |  | C=CCOc1cccc(C2Oc3cccc(OC)c3-c3ccc(NS(C)(=O)=O)cc32)c1 (stereo not drawn) [Example 33, (1-methoxy-6-(3-allyloxy)phenyl-6H-dibenzo(b,d)pyran-8-yl)-methanesulfonamide] |
| 94.5 | 3480 |  | COc1cccc2c1-c1ccc(NS(C)(=O)=O)cc1C(c1ccc(C#N)cc1)O2 (stereo not drawn) [Example 47] |
| 90.8 | > 10000 |  | COc1cccc2c1-c1ccc(NS(C)(=O)=O)cc1C(CCCCCCC#N)O2 (stereo not drawn) [Example 48] |
| 90.4 | 77 |  | COc1cccc2c1-c1ccc(NS(C)(=O)=O)cc1C(c1cccc(C)c1)O2 (stereo not drawn) [Example 86, N-[1-methoxy-6-(3-methylphenyl)-6H-benzo[c]chromen-8-yl]methanesulfonamide] |
| 92.5 | 280 |  | COCCCc1ccc(C2Oc3cccc(OC)c3-c3ccc(NS(C)(=O)=O)cc32)s1 (stereo not drawn) [Example 138, N-{1-methoxy-6-[5-(3-methoxypropyl)-2-thienyl]-6H-benzo[c]chromen-8-yl}methanesulfonamide] |
| 90.6 | > 1000 |  | COc1cccc2c1-c1ccc(NS(C)(=O)=O)cc1C(c1cccc(Oc3ccccc3)c1)O2 (stereo not drawn) [Example 139, N-[1-methoxy-6-(3-phenoxyphenyl)-6H-benzo[c]chromen-8-yl]methanesulfonamide] |
| 69 |  |  | COc1cccc2c1-c1ccc(NS(C)(=O)=O)cc1C(c1cccc(N(C)S(=O)(=O)c3ccc(-c4ccon4)s3)c1)O2 (stereo not drawn) [Example 149, 5-(3-isoxazolyl)-N-(3-{1-methoxy-8-[(methylsulfonyl)amino]-6H-benzo[c]chromen-6-yl}phenyl)-N-methyl-2-thiophenesulfonamide] |
| 90.8 |  |  | CCOC(=O)CCCc1cccc(C2Oc3cccc(OC)c3-c3ccc(NS(C)(=O)=O)cc32)c1 (stereo not drawn) [Example 150, ethyl 4-(3-{1-methoxy-8-[(methylsulfonyl)amino]-6H-benzo[c]chromen-6-yl}phenyl)butanoate] |
| 69.5 |  |  | COc1cccc2c1-c1ccc(NS(C)(=O)=O)cc1C(c1cccc(CCCC(=O)O)c1)O2 (stereo not drawn) [Example 151, 4-(3-{1-methoxy-8-[(methylsulfonyl)amino]-6H-benzo[c]chromen-6-yl}phenyl)butanoic acid] |
|  | > 10000 | 92.8 | COc1cccc2c1-c1ccc(NS(C)(=O)=O)cc1C(c1ccc(Oc3ccc(Br)cc3)cc1)O2 (stereo not drawn) [Example 153] |
|  | 222 | 91.6 | (1,2-methylenedioxy-6-phenyl-6H-dibenzo(b,d)pyran-8-yl)methanesulfonamide [Example 66] |
|  | 2160 | 91.2 | (1-(2-propynyl)oxy-6-phenyl-6H-dibenzo(b,d)pyran-8-yl)methanesulfonamide [Example 45] |
|  | 730 | 90.6 | (1-cyano-6-phenyl-6H-dibenzo(b,d)pyran-8-yl)methanesulfonamide [Example 43] |

| inhibition at 1.7 µM [1] [%] | IC50 [2] [nM] | GR BINDING (% Inhibition @ 1.7 μM) [1] [%] | Molecule |
| --- | --- | --- | --- |
|  | 1280 | 85.6 | (1-difluoromethoxy-6-(4-(N-allyl-N-methylamino)phenyl)-6H-dibenzo(b,d)pyran-8-yl)-methanesulfonamide [Example 30] |
|  | 79 | 90.0 | (1-difluoromethoxy-6-allyl-6H-dibenzo(b,d)pyran-8-yl)-methanesulfonamide [Example 31] |
|  | 2240 | 95.0 | (1-ethynyl-6-phenyl-6H-dibenzo(b,d)pyran-8-yl)methanesulfonamide [Example 36] |
|  | 2840 | 94.9 | (1-methoxy-2-hydroxy-6-phenyl-6H-dibenzo(b,d)pyran-8-yl)methanesulfonamide [Example 65] |
|  | > 10000 | 88.1 | (1-methoxy-4-methyl-6-phenyl-6H-dibenzo(b,d)pyran-8-yl)methanesulfonamide [Example 68] |
|  | 340 | 89.5 | (1-methoxy-6-(2-bromoprop-2-en-1-yl)-6H-dibenzo(b,d)pyran-8-yl)methanesulfonamide [Example 71] |
|  | 450 | 94.1 | (1-methoxy-6-(2-thienyl)-6H-dibenzo(b,d)pyran-8-yl)methanesulfonamide [Example 54] |
|  | 1200 | 98.5 | (1-methoxy-6-(3,4-dichlorophenyl)-6H-dibenzo(b,d)pyran-8-yl)methanesulfonamide [Example 63] |
|  | > 10000 | 94.0 | (1-methoxy-6-(3-carboethoxyphenyl)-6H-dibenzo(b,d)pyran-8-yl)methanesulfonamide [Example 51] |
|  | > 1000 | 88.3 | (1-methoxy-6-(3-chloroprop-2-en-1-yl)-6H-dibenzo(b,d)pyran-8-yl)methanesulfonamide [Example 73] |
|  | 1050 | 93.7 | (1-methoxy-6-(3-cyanophenyl)-6H-dibenzo(b,d)pyran-8-yl)methanesulfonamide [Example 50] |
|  | 480 | 90.4 | (1-methoxy-6-(3-fluorophenyl)-6H-dibenzo(b,d)pyran-8-yl)methanesulfonamide [Example 77] |
|  | 2110 | 94.7 | (1-methoxy-6-(3-methoxyphenyl)-6H-dibenzo(b,d)pyran-8-yl)methanesulfonamide [Example 59] |
|  | > 10000 | 92.2 | (1-methoxy-6-(4-carboethoxyphenyl)-6H-dibenzo(b,d)pyran-8-yl)methanesulfonamide [Example 52] |
|  | 1090 | 94.9 | (1-methoxy-6-(4-chlorobutyl)-6H-dibenzo(b,d)pyran-8-yl)methanesulfonamide [Example 57] |
|  | 3990 | 91.3 | (1-methoxy-6-(4-chlorophenyl)-6H-dibenzo(b,d)pyran-8-yl)methanesulfonamide [Example 61] |

| Molecule | inhibition at 1.7 µM [1] [%] | IC50 [2] [nM] | GR BINDING (% Inhibition @ 1.7 μM) [1] [%] |
| --- | --- | --- | --- |
| COCCCCOc1cccc(C2Oc3cccc(OC)c3-c3ccc(NS(C)(=O)=O)cc32)c1 (stereo not drawn) [Example 95, N-{1-methoxy-6-[3-(4-methoxybutoxy)phenyl]-6H-benzo[c]chromen-8-yl}methanesulfonamide] | 90 | > 1000 |  |
